Target: T1, salivary amylase (Homo sapiens, UniProt P0DUB6)
T1 construct: from tissue; host or cells: saliva in the mouths of the human panelists (in vivo)
T1 sequence (P0DUB6 16-511): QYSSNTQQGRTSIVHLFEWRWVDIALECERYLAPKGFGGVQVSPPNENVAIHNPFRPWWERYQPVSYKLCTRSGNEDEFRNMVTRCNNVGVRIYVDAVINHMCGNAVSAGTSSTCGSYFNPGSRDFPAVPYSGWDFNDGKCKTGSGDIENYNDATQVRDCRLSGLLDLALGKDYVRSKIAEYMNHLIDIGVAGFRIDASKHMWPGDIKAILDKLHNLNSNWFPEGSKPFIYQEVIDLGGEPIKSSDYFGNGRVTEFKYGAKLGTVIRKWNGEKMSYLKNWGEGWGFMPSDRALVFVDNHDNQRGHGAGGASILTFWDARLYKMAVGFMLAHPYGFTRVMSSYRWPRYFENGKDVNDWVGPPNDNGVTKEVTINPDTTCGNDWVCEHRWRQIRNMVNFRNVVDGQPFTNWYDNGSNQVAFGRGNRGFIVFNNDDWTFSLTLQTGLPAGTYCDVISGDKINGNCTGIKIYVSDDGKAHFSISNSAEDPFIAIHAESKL
Test: acarbose study: sensory rating of vanilla custard desserts with added acarbose
Format: in vivo
Conditions: Creamex custard
Protocol: The role of salivary amylase in modifying texture sensations was evaluated in the following examples, in which the level of amylase activity was varied within subjects, rather than between subjects. Alpha-amylase was added in varying concentrations to starch and CMC (non-starch)-based vanilla custard desserts. Additionally, amylase activity was inhibited to various degrees by adding the pharmaceutical amylase inhibitor Acarbose (CAS nr. 56180-94-0) in various concentrations to the same test foods.
Eighteen subjects, 11 females and 7 males aged between 18 and 34 yrs, participated the ‘amylase study’ and 7 different subjects, all females aged between 39 and 56 yrs, participated in the ‘acarbose study’. The subjects participating in the latter study had been informed about acarbose and its possibly side effects if swallowed. To avoid these side effects, subjects expectorated rather than swallowed the acarbose samples. All subjects signed consent forms expressing their willingness to participate in the studies, and all had previously been screened for olfactory and taste disorders and had received extensive training in the description of sensory mouthfeel and afterfeel attributes for semi-solid foods. Testing took place at the sensory facilities of TNO-Nutrition and Food Research in Zeist, The Netherlands. […]

C[C@H]1O[C@H](O[C@H]2[C@H](O)[C@@H](O)[C@@H](O[C@H]3[C@H](O)[C@@H](O)C(O)O[C@@H]3CO)O[C@@H]2CO)[C@H](O)[C@@H](O)[C@@H]1N[C@H]1C=C(CO)[C@@H](O)[C@H](O)[C@H]1O (stereo partly shown) [Acarbose]
increase of creamy mouthfeel: up to 59%
